≈ marks a conversion by molar mass, not a printed value.
Columns and labels:
Escherichia coli [1] = experiment: Antibacterial activity against Escherichia coli DH10B expressing recombinant beta lactamase LAP1; assay type: functional
Enterobacter cloacae [2] = experiment: Antibacterial activity against Enterobacter cloacae S3 isolate by agar dilution technique; assay type: functional
Escherichia coli [3] = experiment: Antibacterial activity against Escherichia coli DH10B; assay type: functional
Enterobacter cloacae [4] = system: Enterobacter cloacae
Description: Activity of Enterobacter cloacae S3 isolate beta lactamase LAP1 expressed in Escherichia coli DH10B

Enterobacter cloacae [5] = system: Enterobacter cloacae; remark: listed apart in the source
Description: Ratio of kcat to Km of Enterobacter cloacae S3 isolate beta lactamase LAP1 expressed in Escherichia coli DH10B

[6] = Inhibition of Enterobacter cloacae S3 isolate beta lactamase LAP1 expressed in Escherichia coli DH10B

| SMILES | MIC (Escherichia coli [1]) | MIC (Enterobacter cloacae [2]) | MIC (Escherichia coli [3]) | Km (Enterobacter cloacae [4]) | kcat/Km (Enterobacter cloacae [5]) | IC50 [6] |
| --- | --- | --- | --- | --- | --- | --- |
| CO/N=C(\C(=O)N[C@@H]1C(=O)N2C(C(=O)[O-])=C(C[N+]3(C)CCCC3)CS[C@H]12)c1csc(N)n1 | 0.12 µg/mL | – | – | – | – | – |
| CC1(C)S[C@@H]2[C@H](NC(=O)[C@H](N)c3ccc(O)cc3)C(=O)N2[C@H]1C(=O)O [AMOXICILLIN] | 512 µg/mL | > 512 µg/mL | 4 µg/mL (≈ 10.9 µM) | 180 µM | 3.3e+06 M⁻¹ s⁻¹ | – |
| CO/N=C(\C(=O)N[C@@H]1C(=O)N2C(C(=O)O)=C(COC(C)=O)CS[C@H]12)c1csc(N)n1 [CEFOTAXIME] | 0.12 µg/mL | 0.25 µg/mL (≈ 0.549 µM) | 0.12 µg/mL (≈ 0.263 µM) | – | – | – |
| CO[C@@]1(NC(=O)Cc2cccs2)C(=O)N2C(C(=O)O)=C(COC(N)=O)CS[C@@H]21 [CEFOXITIN] | 4 µg/mL | 256 µg/mL (≈ 599 µM) | 4 µg/mL (≈ 9.36 µM) | – | – | – |
| CC(C)(O/N=C(\C(=O)N[C@@H]1C(=O)N2C(C(=O)[O-])=C(C[n+]3ccccc3)CS[C@H]12)c1csc(N)n1)C(=O)O [CEFTAZIDIME] | 0.12 µg/mL | 0.5 µg/mL (≈ 0.915 µM) | 0.06 µg/mL (≈ 0.11 µM) | – | – | – |
| CO/N=C(\C(=O)N[C@@H]1C(=O)N2C(C(=O)O)=C(COC(N)=O)CS[C@H]12)c1ccco1 [CEFUROXIME] | 8 µg/mL | 256 µg/mL (≈ 603 µM) | 2 µg/mL (≈ 4.71 µM) | > 2000 µM | > 50000 M⁻¹ s⁻¹ | – |
| CC(=O)OCC1=C(C(=O)O)N2C(=O)[C@@H](NC(=O)Cc3cccs3)[C@H]2SC1 [CEPHALOTHIN] | 16 µg/mL | > 512 µg/mL | 4 µg/mL (≈ 10.1 µM) | 400 µM | 90000 M⁻¹ s⁻¹ | – |
| C[C@@H](O)[C@H]1C(=O)N2C(C(=O)O)=C(SCCNC=N)C[C@H]12 [IMIPENEM ANHYDROUS] | – | 0.12 µg/mL (≈ 0.401 µM) | – | – | – | – |
| CC1(C)S[C@@H]2[C@H](NC(=O)Cc3ccccc3)C(=O)N2[C@H]1C(=O)O [PENICILLIN G] | – | – | – | 20 µM | 1e+07 M⁻¹ s⁻¹ | 80 nM |
| CCN1CCN(C(=O)N[C@@H](C(=O)N[C@@H]2C(=O)N3[C@@H]2SC(C)(C)[C@@H]3C(=O)O)c2ccccc2)C(=O)C1=O [PIPERACILLIN] | 4 µg/mL | 16 µg/mL (≈ 30.9 µM) | 1 µg/mL (≈ 1.93 µM) | 50 µM | 1.5e+06 M⁻¹ s⁻¹ | – |
| CC1(C)S[C@@H]2[C@H](NC(=O)[C@H](C(=O)O)c3ccsc3)C(=O)N2[C@H]1C(=O)O [TICARCILLIN] | 512 µg/mL | > 512 µg/mL | 4 µg/mL (≈ 10.4 µM) | – | – | – |
